Entries after “also recorded” stand apart in the source; their conditions may differ.
Columns and labels:
PGC-1α and related genes [1] = assay: Gene expression by SL treatment in normal mouse models; format: in vivo; conditions: normal C57BL/6 mice, oral 0.1 mg/kg/day, 10 weeks, organs, skeletal muscles, abdominal fat
Protocol: In order to investigate relative gene expression changes by organs compared with before SL (3′-SL & 6′-SL) aministration, 4-week-old C57BL/6 mice were purchased from Dooyeul Biotech (Korea). Water was freely accessible, and a commercially available pellet feed (Dooyeul Biotech, Korea) was given for two weeks. […]
Sialyllactose or deionized water was orally administered daily. […] The dietary intake and body weight change were measured every 5 days. […]
(§1) The gene expression changes by administration of the SL (3′-SL & 6′-SL) compositions were quantitatively compared for eight main organs (heart, hippocampus, brain, spinal cord, lung, liver, spleen, and kidney), three skeletal muscles (soleus muscle, quadriceps femoris muscle, and gastrocnemius muscle), and abdominal fat. RNA was extracted by TRIzol agent (Invitrogen). cDNA was synthesized by using RNA, which has been extracted as above and quantified, and a reverse transcription system (Promega, USA). The expression patterns of PGC-1α and related genes were measured by using pre-designed primers and probes (Applied Biosystems; PGC-1α, Mm00447181_m1, GAPDH, and Mm99999915_q1) for the synthesized cDNA and analysis targets (Fndc5, PGC-1α, Erra, UCP1, SOD2, and GPX1). […]

[2] = test system: Alzheimer's disease model mice (3×Tg); assay: Cognitive ability test (Morris water maze) in Alzheimer's disease models; format: in vivo, mouse; conditions: 3×Tg mice, oral 0.1 mg/kg/day; test for 7 days
From the text: In order to investigate the changes in gene expression and cognitive ability by the treatment with SL (3′-SL & 6′-SL) compositions in Alzheimer's brain disease models, 6-week-old mice were purchased from Central Lab Animal (Korea). Water was freely accessible, and a commercially available pellet feed (Dooyeul Biotech, Korea) was given for two weeks. At 8 weeks of age, the mice were divided into three groups (composed of eight mice for each group): Eight 8-week-old male c57/BL6 mice (normal mice; initial body weight, average 35.6±3.3 g) treated with a normal diet were used for a control group. […]

PGC-1α and related genes [3] = assay: Gene expression by body parts in skin test models; format: in vivo, mouse; conditions: HRM2 mice, oral 0.1 mg/kg/day, 10 weeks; organs and muscles
From the text: In order to investigate the gene expression chages by body parts by the treatment with the SL (3′-SL & 6′-SL) compositions in skin test models, 6-week-old male skin test model (HRM2) mice (hairless appearance containing melanin) were randomly grouped into three different dietary treatment groups (8 animals per group, a total of 24 animals) below, and the diets (AIN-76A, Dyets, USA) were maintained for 10 weeks. […]
as §1, with “the like.” for “abdominal fat.”

| SMILES | expression levels of analysis targets (Fndc5, PGC-1α, Erra, UCP1) vs control group (PGC-1α and related genes [1]) | escape time in the cognitive ability test (Morris water maze) [2] | expression levels of analysis targets (Fndc5, PGC-1α, Erra, UCP1, SOD2, GPX1) vs negative control (PGC-1α and related genes [3]) | expression levels of analysis targets (Fndc5, PGC-1α, Erra, UCP1) vs control group (PGC-1α and related genes [1]; 0.1 mg/kg/day) |
| --- | --- | --- | --- | --- |
| CC(=O)N[C@H]1[C@H]([C@H](O)[C@H](O)CO)O[C@@](OC[C@H]2O[C@@H](O[C@H]3[C@H](O)[C@@H](O)[C@H](O)O[C@@H]3CO)[C@H](O)[C@@H](O)[C@H]2O)(C(=O)O)C[C@@H]1O [6′-SL, α-NeuNAc-(2→6)-β-D-Gal-(1→4)-D-Glc] | higher than the negative control group | definitely fast | very excellent | – |
| CC(=O)N[C@H]1[C@H]([C@H](O)[C@H](O)CO)O[C@@](O[C@H]2[C@@H](O)[C@@H](CO)O[C@@H](O[C@H]3[C@H](O)[C@@H](O)C(O)O[C@@H]3CO)[C@@H]2O)(C(=O)O)C[C@@H]1O (stereo partly drawn) [3′-SL, α-NeuNAc-(2→3)-β-D-Gal-(1→4)-D-Glc] | – | relatively low compared with 6′-SL | relatively low compared with 6′-SL | higher than the negative control group; also recorded: less effective than the 6′-SL administration groups |

— patent US20190030053A1, “COMPOSITION FOR INCREASING EXPRESSION OF PGC-1alpha” (BENEBIOSIS CO., LTD., priority 2016, published 2019)
